pEC50, pIC50: −log10 of the molar value. Read-outs that look alike come from different tables or passages of the source.
Experiments:
[1] = test system: fetal hemoglobin gene HBG1; assay: HBG1 Nanostring Assay in CD34+ HSPC erythroid differentiation culture; format: cell-based, human; conditions: for pEC50: Homo sapiens, 240 h, HBG1 induction, Day10 of erythroid differentiation; for Nanostring Ymax obs (%): relative to a control compound (C1)
Summary of the method: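 CD34+ HSPCs were dosed from day −2 (0.1% DMSO) through two-phase erythroid differentiation (EPO, transferrin, SCF, IL-3, insulin; IL-3 removed from day 7) at 37° C, 5% CO2. Day-10 lysates of 100K cells were hybridized at 67° C for 22 h for nCounter counting, normalized to ERCC and housekeeping controls. EC50 and Ymax were derived, with Ymax relative to a control compound.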

[2] = test system: Cullin-3 (CUL3) neddylation; assay: AlphaLISA assay for Cullin-3 (CUL3) neddylation in TF 1 cells; format: cell-based; conditions: Homo sapiens, TF-1, 3 h, 3 hours treatment
Summary of the method: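 TF 1 cells in unsupplemented IMDM treated with compound concentrations for 3 h, then lysed. CUL3 neddylation detected by AlphaLISA (biotinylated anti-NEDD8, anti-CUL3 acceptor beads overnight, streptavidin donor beads 1 h); normalized to vehicle (0%) and 1 μM DI-1548 (100%), IC50 from Hill fits.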

[3] = target: DCN1 protein (Homo sapiens (Human), UniProt Q96GG9); assay: Intact Protein MS Analysis with the RapidFire-TOF System (covalent adduct formation); format: binding; conditions: MS Emax; 400 nM DCN1, 3 hours at room temperature
Summary of the method: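 Tag-cleaved human DCN1 (400 nM) expressed in E. coli, in 25 mM Tris-HCl, 200 mM NaCl, 1 mM DTT, was incubated with 11 compound concentrations for 3 h at room temperature and quenched with 0.2% formic acid. Intact-protein Q-TOF MS with deconvolution detected the compound adduct mass.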

[4] = target: DCN1 (DCUND1) protein PONY domain (Homo sapiens (Human), UniProt Q96GG9); assay: TR-FRET assay, DCN1 binding with FAM-labeled probe; conditions: for IC50: TR FRET IC50 1 hr (nM)
Summary of the method: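 Biotinylated DCN1 PONY domain, labeled with streptavidin-Tb, was competed against a FAM-labeled non-covalent DCN1 inhibitor probe in buffer with TritonX and 200 mM NaCl. Conditions were 5 nM DCN1 with 20 nM FAM-probe, or 0.31 nM DCN1 with 100 nM FAM-plus 800 nM unlabeled probe. The TR-FRET ratio was read at 1, 5 and 24 h (0.1% DMSO).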

[5] = 24 hr after treatment with compound, read-out: TR FRET IC50 24 hr
[6] = 1 hr after treatment with compound
[7] = read-out: TR FRET IC50 1 hr, 1 hr after treatment with compound

Sequence of DCN1 protein (Q96GG9 whole entry): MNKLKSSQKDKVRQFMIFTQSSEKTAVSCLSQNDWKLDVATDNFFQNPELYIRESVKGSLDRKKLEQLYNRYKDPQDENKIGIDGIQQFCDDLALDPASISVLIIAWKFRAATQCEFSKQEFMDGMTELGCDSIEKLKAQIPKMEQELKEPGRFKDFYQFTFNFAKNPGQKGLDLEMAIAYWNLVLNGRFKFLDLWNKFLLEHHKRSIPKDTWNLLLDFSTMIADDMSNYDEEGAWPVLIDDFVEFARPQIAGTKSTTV
Sequence of DCN1 (DCUND1) protein PONY domain (Q96GG9 60-248): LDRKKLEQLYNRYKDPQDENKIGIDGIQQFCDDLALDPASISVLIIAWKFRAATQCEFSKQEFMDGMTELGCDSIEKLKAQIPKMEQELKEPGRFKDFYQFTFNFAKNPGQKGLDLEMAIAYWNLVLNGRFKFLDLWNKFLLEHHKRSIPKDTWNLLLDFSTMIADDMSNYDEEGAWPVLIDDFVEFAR

| SMILES | pEC50 [1] | Nanostring Ymax obs (%) [1] | pIC50 [2] | % Adduct Formation [3] | pIC50 [4, 5] | IC50 [4, 6] [nM] | pIC50 [4, 7] |
| --- | --- | --- | --- | --- | --- | --- | --- |
| CCN1C(=O)[C@@H](NC(=O)c2cccc(C(F)(F)F)c2)[C@@H](c2ccc(F)cc2)c2c(CNC(=O)C#CCN(C)C)nn(-c3ccccc3)c21 (racemic) [Compound I-19, rac-N-((4R,5R)-3-((4-(dimethylamino)but-2-ynamido)methyl)-7-ethyl-4-(4-fluorophenyl)-6-oxo-1-phenyl-4,5,6,7-tetrahydro-1H-pyrazolo[3,4-b]pyridine-5-yl)-3-(trifluoromethyl)benzamide] | ≥ 7.00 | +++ (Nanostring Ymax greater than 100.0) | ≥ 7.00 | +++ (MS Emax % adduct formation greater than 80.0 and less than or equal to 100.0) | ≥ 6.70 | ≤ 200 |  |
| CCN1C(=O)[C@@H](NC(=O)c2cccc(C(F)(F)F)c2)[C@@H](c2ccc(F)cc2)c2c(CNC(=O)C3(C#N)CC3)nn(-c3ccccc3)c21 (racemic) [Compound I-37, rac-N-((4R,5R)-3-((1-cyanocyclopropane-1-carboxamido)methyl)-7-ethyl-4-(4-fluorophenyl)-6-oxo-1-phenyl-4,5,6,7-tetrahydro-1H-pyrazolo[3,4-b]pyridine-5-yl)-3-(trifluoromethyl)benzamide] | < 6.00 | + (Nanostring Ymax greater than or equal to 0.0 and less than or equal to 50.0) | 6.00 to 7.00 | + (MS Emax % adduct formation greater than or equal to 0.0 and less than or equal to 30.0) | 5.52 to 6.00 | 1000 to 3000 |  |
| C=C(CC(=O)NCc1nn(-c2ccccc2)c2c1[C@H](c1ccc(F)cc1)[C@H](NC(=O)c1cccc(C(F)(F)F)c1)C(=O)N2CC)C(=O)OC (racemic) [Compound I-4] | 6.00 to 7.00 | ++ (Nanostring Ymax greater than 50.0 and less than or equal to 100.0) | ≥ 7.00 | +++ (MS Emax % adduct formation greater than 80.0 and less than or equal to 100.0) | ≥ 6.70 | ≤ 200 |  |
| CCN1C(=O)[C@@H](NC(=O)c2cccc(C(F)(F)F)c2)[C@@H](C2CC2)c2c(C(=O)N3CC(F)(F)C[C@H]3C#N)nn(C3CCOCC3)c21 [Compound I-378] | ≥ 7.00 | ++ (Nanostring Ymax greater than 50.0 and less than or equal to 100.0) | ≥ 7.00 | +++ (MS Emax % adduct formation greater than 80.0 and less than or equal to 100.0) | ≥ 6.70 |  | ≥ 6.70 |
| CCN1C(=O)[C@@H](NC(=O)c2cccc(C(F)(F)F)c2)[C@@H](c2ccc(F)cc2)c2c(C(=O)N3CCCC[C@H]3C#N)nn(-c3ccccc3)c21 (mixture of isomers) [Compound I-270] | 6.00 to 7.00 | ++ (Nanostring Ymax greater than 50.0 and less than or equal to 100.0) | ≥ 7.00 | +++ (MS Emax % adduct formation greater than 80.0 and less than or equal to 100.0) | ≥ 6.70 |  | ≥ 6.70 |
| CCN1C(=O)[C@@H](NC(=O)c2cccc(C(F)(F)F)c2)[C@@H](C2CC2)c2c(C(=O)N(C)CC#N)nn(C3CCOCC3)c21 [Compound I-374] | ≥ 7.00 | +++ (Nanostring Ymax greater than 100.0) | ≥ 7.00 | +++ (MS Emax % adduct formation greater than 80.0 and less than or equal to 100.0) | ≥ 6.70 | 200 to 1000 |  |
| CCN1C(=O)[C@@H](NC(=O)c2cccc(C(F)(F)F)c2)[C@@H](c2ccc(F)cc2)c2c(NC(=O)/C=C/C(F)(F)F)nn(-c3ccccc3)c21 [Compound I-125] | 6.00 to 7.00 | +++ (Nanostring Ymax greater than 100.0) | ≥ 7.00 | ++ (MS Emax % adduct formation greater than 30.0 and less than or equal to 80.0) | 6.00 to 6.70 |  | < 5.52 |
| CCN1C(=O)[C@@H](NC(=O)c2cccc(C(F)(F)F)c2)[C@@H](c2ccc(F)cc2)c2c(NC(=O)CCl)nn(-c3ccccc3)c21 (racemic) [Compound I-161] | 6.00 to 7.00 | ++ (Nanostring Ymax greater than 50.0 and less than or equal to 100.0) | ≥ 7.00 | + (MS Emax % adduct formation greater than or equal to 0.0 and less than or equal to 30.0) | ≥ 6.70 | 1000 to 3000 |  |
| C=C(CN1CCC(F)(F)C1)C(=O)NCc1nn(-c2ccccc2)c2c1[C@H](c1ccc(F)cc1)[C@@H](NC(=O)c1cccc(C(F)(F)F)c1)C(=O)N2CC (racemic) [Compound I-32] | 6.00 to 7.00 | ++ (Nanostring Ymax greater than 50.0 and less than or equal to 100.0) | ≥ 7.00 | + (MS Emax % adduct formation greater than or equal to 0.0 and less than or equal to 30.0) | ≥ 6.70 |  | ≥ 6.70 |
| C=C(CN1CCOCC1)C(=O)Nc1nn(-c2ccccc2)c2c1[C@H](c1ccc(F)cc1)[C@H](NC(=O)c1cccc(C(F)(F)F)c1)C(=O)N2CC (racemic) [Compound I-75] |  | +++ (Nanostring Ymax greater than 100.0) | ≥ 7.00 | +++ (MS Emax % adduct formation greater than 80.0 and less than or equal to 100.0) | ≥ 6.70 |  | ≥ 6.70 |
| C=C(CC(=O)NCc1nn(-c2ccccc2)c2c1[C@@H](c1ccc(F)cc1)[C@H](NC(=O)c1cccc(C(F)(F)F)c1)C(=O)N2CC)C(=O)OC [Compound I-132] | < 6.00 | + (Nanostring Ymax greater than or equal to 0.0 and less than or equal to 50.0) | 6.00 to 7.00 | ++ (MS Emax % adduct formation greater than 30.0 and less than or equal to 80.0) | ≥ 6.70 | 200 to 1000 |  |
| C=CC(=O)Nc1nn(-c2ccccc2)c2c1[C@H](c1ccc(F)cc1)[C@H](NC(=O)c1cccc(C(F)(F)F)c1)C(=O)N2CC (racemic) [Compound I-122] | < 6.00 | ++ (Nanostring Ymax greater than 50.0 and less than or equal to 100.0) | 6.00 to 7.00 | ++ (MS Emax % adduct formation greater than 30.0 and less than or equal to 80.0) | ≥ 6.70 |  | ≥ 6.70 |
| C=C(C(=O)O)c1nn(-c2ccccc2)c2c1[C@H](c1ccc(F)cc1)[C@H](NC(=O)c1cccc(C(F)(F)F)c1)C(=O)N2CC [Compound I-153, 2-((4S,5S)-7-ethyl-4-(4-fluorophenyl)-6-oxo-1-phenyl-5-(3-(trifluoromethyl)benzamido)-4,5,6,7-tetrahydro-1H-pyrazolo[3,4-b]pyridin-3-yl)acrylic acid] | 6.00 to 7.00 | ++ (Nanostring Ymax greater than 50.0 and less than or equal to 100.0) | ≥ 7.00 | ++ (MS Emax % adduct formation greater than 30.0 and less than or equal to 80.0) | ≥ 6.70 | 200 to 1000 |  |
| CCN1C(=O)[C@H](NC(=O)c2cccc(C(F)(F)F)c2)[C@@H](c2ccc(F)cc2)c2c(CNC(=O)/C(C)=C/C(=O)OC)nn(-c3ccccc3)c21 [Compound I-108] | < 6.00 | ++ (Nanostring Ymax greater than 50.0 and less than or equal to 100.0) | ≥ 7.00 | + (MS Emax % adduct formation greater than or equal to 0.0 and less than or equal to 30.0) | 6.00 to 6.70 | 200 to 1000 |  |
| CCN1C(=O)[C@@H](NC(=O)c2cccc(C(F)(F)F)c2)[C@@H](c2ccc(F)cc2)c2c(CN(C)C(=O)/C=C/CN(C)C)nn(-c3ccccc3)c21 [Compound I-117] | < 6.00 | + (Nanostring Ymax greater than or equal to 0.0 and less than or equal to 50.0) | < 6.00 | + (MS Emax % adduct formation greater than or equal to 0.0 and less than or equal to 30.0) | 6.00 to 6.70 | 200 to 1000 |  |
| CCN1C(=O)[C@@H](NC(=O)c2cccc(C(F)(F)F)c2)[C@@H](c2ccc(F)cc2)c2c(CNC(=O)/C(C#N)=C/C(C)(C)C)nn(-c3ccccc3)c21 (racemic) [Compound I-173] | 6.00 to 7.00 | ++ (Nanostring Ymax greater than 50.0 and less than or equal to 100.0) | ≥ 7.00 | +++ (MS Emax % adduct formation greater than 80.0 and less than or equal to 100.0) |  |  |  |
| C=CC(=O)NCc1nn(-c2ccccc2)c2c1[C@H](c1ccc(F)cc1)[C@H](NC(=O)c1cccc(C(F)(F)F)c1)C(=O)N2CC (racemic) [Compound I-202] |  | + (Nanostring Ymax greater than or equal to 0.0 and less than or equal to 50.0) | 6.00 to 7.00 | + (MS Emax % adduct formation greater than or equal to 0.0 and less than or equal to 30.0) |  |  |  |

From patent US20250163057A1, “DCN-1 MODULATING COMPOUNDS AND METHODS OF USE THEREOF” (Cellarity, Inc., priority 2023, published 2025)
